The source of these data is EP1203770A1 (priority 1992, dated 1994).

The experiment deals with T1, HIV-1 protease (Human immunodeficiency virus type 1 group M subtype B, UniProt P04585).
T1 construct: The protease (or proteinase), consisting of only 99 amino acids, is among the smallest enzymes known
The experiment is described as follows: In vitro HIV protease inhibitory assay (HIV Protease FITC Assay). Format: biochemical. Particulars: for inhibition at 0.123 µM / inhibition at 0.37 µM / inhibition at 1.1 µM / inhibition at 3.3 µM / inhibition at 10 µM / inhibition at 30 µM / inhibition at 1 µM / inhibition at 100 µM / inhibition at 0.41 µM / inhibition at 1.23 µM / inhibition at 3.7 µM / inhibition at 11 µM / inhibition at 33 µM: read-out: HIV-1 Protease % Inhib; for Ki: read-out: HIV-1 FITC Ki; for inhibition at 1 µM: HIV-1 Dose 1.000 uM; for inhibition at 100 µM: HIV-1 Dose 100.000 uM; for inhibition at 0.41 µM: HIV-1 Dose 0.410 uM; for inhibition at 1.23 µM: HIV-1 Dose 1.230 uM; for inhibition at 3.7 µM: HIV-1 Dose 3.700 uM; for inhibition at 11 µM: HIV-1 Dose 11.000 uM; for inhibition at 33 µM: HIV-1 Dose 33.000 uM. Put shortly: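 Percent inhibition was read as fluorescence after avidin-bead capture and filtration separated FITC cleavage product from biotinylated substrate. Enzyme and substrate reacted 1 h, RT, dark, at pH 5.5 (0.1 M sodium acetate, 1.0 M NaCl, 0.05% NP-40).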

In the case of `C=CC(C1=C(O)CC2(CCCCCC2)OC1=O)c1ccccc1` (stereo not shown) [Example 127, 4-Hydroxy-3-(1-phenylallyl)-1-oxa-spiro[5.6]-dodec-3-en-2-one], the inhibition at 0.123 µM (HIV-1 Dose 0.123 uM) is below 10%. The inhibition at 0.37 µM (HIV-1 Dose 0.370 uM) amounted to 14.4%. The inhibition at 1.1 µM (HIV-1 Dose 1.100 uM) worked out at 38.4%. For the same compound, the inhibition at 3.3 µM (HIV-1 Dose 3.300 uM) came out at 65.6%. Where the note is “HIV-1 Dose 10.000 uM”, the inhibition at 10 µM turned out to be 98.9%. In addition, the inhibition at 30 µM (HIV-1 Dose 30.000 uM) amounted to 102%.
Regarding `CCC(Cc1ccccc1)c1cc(O)c(C2(c3ccccc3)CCC2)c(=O)o1` (stereo not shown) [Example 124, 4-Hydroxy-3-(1-phenylcyclobutyl)-6-[1-(phenylmethyl)propyl]-2H-pyran-2-one], the inhibition at 0.123 µM (HIV-1 Dose 0.123 uM) was below 10%. In addition, where the note is “HIV-1 Dose 0.370 uM”, the inhibition at 0.37 µM is below 10%. Further, under “HIV-1 Dose 1.100 uM”, the inhibition at 1.1 µM is below 10%. Also, the inhibition at 3.3 µM (HIV-1 Dose 3.300 uM) turned out to be 27.5%. Further, the inhibition at 10 µM (HIV-1 Dose 10.000 uM) was 53.4%. The inhibition at 30 µM (HIV-1 Dose 30.000 uM) is 64.8%.
The Ki is a dissociation constant, usually derived from enzyme kinetics or from competition with a known ligand. For `COCOCc1ccc(C(C2=C(O)CC(CCc3ccccc3)(CC(C)C)OC2=O)C2CC2)s1` (stereo not drawn) [Example 232, 2H-Pyran-2-one, 3-(α-cyclopropyl-[5-(methoxymethoxy-methyl)-thiophen-2-yl]-methyl)-5,6-dihydro-4-hydroxy-6-(2-methylpropyl)-6-(2-phenylethyl)-], the Ki is 0.076 µM. Besides, the “HIV-1 Protease % Inhib” value (HIV-1 Dose 0.123 uM) was found to be 10.57%. The “HIV-1 Protease % Inhib” value (HIV-1 Dose 0.370 uM) came to 36.97%. Further, the “HIV-1 Protease % Inhib” value (HIV-1 Dose 1.100 uM) is on record as 73.74%. Further, where the note is “HIV-1 Dose 3.300 uM”, the “HIV-1 Protease % Inhib” value came out at 93.56%. For the same compound, the “HIV-1 Protease % Inhib” value (HIV-1 Dose 10.000 uM) amounted to 103.56%. Also, the “HIV-1 Protease % Inhib” value (HIV-1 Dose 30.000 uM) was determined as 98.87%.
With `O=c1oc(CCCC2CCCCC2)cc(O)c1C(c1ccccc1)C1CC1` (stereo not shown) [Example 94, 6-(3-Cyclohexyl-propyl)-3-(cyclopropyl-phenyl-methyl)-4-hydroxy-pyran-2-one], the inhibition at 1 µM was below 10% and the inhibition at 100 µM came out at 52.4%. The inhibition at 10 µM (HIV-1 Dose 10.000 uM) is 25%.
As for `CCC(Cc1ccccc1)c1cc(O)c(C(c2cccc(NC(=O)c3ccc(C#N)cc3)c2)C2CC2)c(=O)o1` (stereo not shown) [Example 227], under “HIV-1 Dose 0.123 uM”, the inhibition at 0.123 µM is below 10%. Where the note is “HIV-1 Dose 0.370 uM”, the inhibition at 0.37 µM is 19.6%. Moreover, the inhibition at 1.1 µM (HIV-1 Dose 1.100 uM) came to 49.2%. Besides, the inhibition at 3.3 µM (HIV-1 Dose 3.300 uM) was 80.2%. Also, the inhibition at 10 µM (HIV-1 Dose 10.000 uM) turned out to be 89.8%. For the same compound, the inhibition at 30 µM (HIV-1 Dose 30.000 uM) is 85.4%.
For `O=C1OC(CCc2ccccc2)(CCc2ccccc2)CC(O)=C1C(CCc1ccccc1)c1ccccc1` (stereo not shown) [Example 237, 2H-Pyran-2-one, 5,6-dihydro-4-hydroxy-6,6-di-(2-phenylethyl)-3-(1,3-diphenylpropyl)-], the inhibition at 0.123 µM (HIV-1 Dose 0.123 uM) is below 10%. For the same compound, the inhibition at 0.37 µM (HIV-1 Dose 0.370 uM) was determined as 10.2%. Further, the inhibition at 1.1 µM (HIV-1 Dose 1.100 uM) stood at 32%. The inhibition at 3.3 µM (HIV-1 Dose 3.300 uM) turned out to be 60.2%. Also, under “HIV-1 Dose 10.000 uM”, the inhibition at 10 µM is 80.9%. Further, the inhibition at 30 µM (HIV-1 Dose 30.000 uM) was found to be 78.2%.
Consider `CCCC1(c2ccccc2)CC(=O)C(C(CC)c2cccc(O)c2)C(=O)O1` (stereo not shown) [Example 35, Dihydro-3-(1-(3-hydroxyphenyl)propyl]-6-phenyl-6-propyl-2H-pyran-2,4(3H)-dione], for which the inhibition at 1 µM amounted to 23.8% and the inhibition at 100 µM is 73.6%. Besides, the inhibition at 10 µM (HIV-1 Dose 10.000 uM) is 79.8%.
Take `O=c1oc(C(Cc2ccccc2)Cc2ccccn2)cc(O)c1C(c1ccccc1)C1CC1` (stereo not shown) [Example 46, 3-(Cyclopropyl-phenyl-methyl)-4-hydroxy-6-(2-phenyl-1-pyridin-2-ylmethyl-ethyl)-pyran-2-one]: the inhibition at 0.41 µM was determined as 29.2%, the inhibition at 1.23 µM amounted to 65%, the inhibition at 3.7 µM was 91.6% and the inhibition at 11 µM is 94.2%. In addition, the inhibition at 33 µM was determined as 103%, the inhibition at 100 µM stood at 115% and the inhibition constant (Ki) came out at 0.313 µM.
As for `O=c1oc(CC(O)c2ccc(Cl)cc2)cc(O)c1C(c1ccccc1)C1CC1` (stereo not drawn) [Example 149, 3-(α-cyclopropylbenzyl)-4-hydroxy-6-(β-hydroxy-p-chlorophenethyl)-2H-pyran-2-one], the inhibition at 100 µM came out at 117% and the inhibitory constant (Ki) came out at 0.267 µM. Besides, where the note is “HIV-1 Dose 0.123 uM”, the inhibition at 0.123 µM was below 10%. In addition, the inhibition at 0.37 µM (HIV-1 Dose 0.370 uM) worked out at 19.7%. For the same compound, the inhibition at 1.1 µM (HIV-1 Dose 1.100 uM) came to 46.9%. The inhibition at 3.3 µM (HIV-1 Dose 3.300 uM) stood at 73.5%. The inhibition at 10 µM (HIV-1 Dose 10.000 uM) worked out at 98.5%. The inhibition at 30 µM (HIV-1 Dose 30.000 uM) was 103%.
As to `CCC(C1=C(O)CC2(CCC(O)CC2)OC1=O)c1ccccc1` (stereo not shown) [Example 116, 4,9-Dihydroxy-3-(1-phenyl-propyl)-1-oxa-spiro[5.5]undec-3-en-2-one], the inhibition at 0.123 µM (HIV-1 Dose 0.123 uM) is below 10%. Besides, for the setting “HIV-1 Dose 0.370 uM”, the inhibition at 0.37 µM was below 10%. The inhibition at 1.1 µM (HIV-1 Dose 1.100 uM) is below 10%. Where the note is “HIV-1 Dose 3.300 uM”, the inhibition at 3.3 µM amounted to 31.1%. The inhibition at 10 µM (HIV-1 Dose 10.000 uM) is 62%. In addition, the inhibition at 30 µM (HIV-1 Dose 30.000 uM) is 89.9%.
On to `CCC(C1=C(O)CC(CCc2ccccc2)(CC(C)C)OC1=O)c1ccccc1` (stereo not shown) [Example 234, 2H-Pyran-2-one, 5,6-dihydro-4-hydroxy-6-(2-methylpropyl)-6-(2-phenylethyl)-3-(1-phenylpropyl)-], for which the Ki is 0.0394 µM. The inhibition at 0.123 µM (HIV-1 Dose 0.123 uM) was below 10%. For the same compound, the inhibition at 0.37 µM (HIV-1 Dose 0.370 uM) was found to be 33.4%. Where the note is “HIV-1 Dose 1.100 uM”, the inhibition at 1.1 µM amounted to 61.6%. The inhibition at 3.3 µM (HIV-1 Dose 3.300 uM) is 81.1%. Moreover, under “HIV-1 Dose 10.000 uM”, the inhibition at 10 µM worked out at 83%. For the same compound, the inhibition at 30 µM (HIV-1 Dose 30.000 uM) amounted to 71.1%.
As for `Cc1ccc(S(=O)(=O)Nc2cccc(C(c3c(O)cc(C(CC4CC4)CC4CCCOC4)oc3=O)C3CC3)c2)cc1` (stereo not shown) [Example 245], the Ki was 0.0206 µM. In addition, the inhibition at 0.123 µM (HIV-1 Dose 0.123 uM) came out at 25.9%. For the same compound, the inhibition at 0.37 µM (HIV-1 Dose 0.370 uM) amounted to 58%. The inhibition at 1.1 µM (HIV-1 Dose 1.100 uM) turned out to be 83.3%. The inhibition at 3.3 µM (HIV-1 Dose 3.300 uM) is 90.3%. Moreover, the inhibition at 10 µM (HIV-1 Dose 10.000 uM) turned out to be 96.9%. In addition, for the setting “HIV-1 Dose 30.000 uM”, the inhibition at 30 µM was found to be 94.1%.
For `CCC(Cc1ccccc1)c1cc(O)c(C(c2cccc(NC(=O)Nc3ccc(OC)cc3)c2)C2CC2)c(=O)o1` (stereo not drawn) [Example 214, 3-(α-Cyclopropyl-meta-[(4-methoxyphenylaminocarbonyl)amino]benzyl)-6-(α-ethylphenethyl)-4-hydroxy-2H-pyran-2-one], the inhibition at 0.123 µM (HIV-1 Dose 0.123 uM) is below 10%. Besides, the inhibition at 0.37 µM (HIV-1 Dose 0.370 uM) was below 10%. Also, for the setting “HIV-1 Dose 1.100 uM”, the inhibition at 1.1 µM was determined as 32%. For the same compound, for the setting “HIV-1 Dose 3.300 uM”, the inhibition at 3.3 µM came to 66%. For the same compound, the inhibition at 10 µM (HIV-1 Dose 10.000 uM) was 79.5%. Moreover, where the note is “HIV-1 Dose 30.000 uM”, the inhibition at 30 µM came out at 86%.
On to `O=C1OC(CCc2ccccc2)(CCc2ccccc2)CC(O)=C1C(c1ccccc1)c1ccccc1` [Example 235, 2H-Pyran-2-one, 5,6-dihydro-3-diphenylmethyl4-hydroxy-6,6-di-(2-phenylethyl)-], for which the inhibition at 0.123 µM (HIV-1 Dose 0.123 uM) is below 10%. The inhibition at 0.37 µM (HIV-1 Dose 0.370 uM) stood at 13.7%. Moreover, where the note is “HIV-1 Dose 1.100 uM”, the inhibition at 1.1 µM came to 33.2%. Further, the inhibition at 3.3 µM (HIV-1 Dose 3.300 uM) was found to be 61.6%. The inhibition at 10 µM (HIV-1 Dose 10.000 uM) worked out at 73.3%. The inhibition at 30 µM (HIV-1 Dose 30.000 uM) came out at 80.1%.
Consider `COCCOCCOCCCc1cc(O)c(C(c2ccccc2)C2CC2)c(=O)o1` (stereo not shown) [Example 108], for which the inhibition at 0.41 µM is below 10%, the inhibition at 1.23 µM was 20.4%, the inhibition at 3.7 µM was 46.9% and the inhibition at 11 µM was 76.7%. Moreover, the inhibition at 33 µM is 84.8%, the inhibition at 100 µM stood at 118% and the inhibition constant (Ki) is 0.607 µM.
